Test results: US20200268864A1, “CANCER VACCINE COMPOSITIONS AND METHODS FOR USING SAME TO TREAT CANCER” (Dana-Farber Cancer Institute, Inc., priority 2017, published 2020)
Entries after “also recorded” stand apart in the source; their conditions may differ. Residues, ends and D or L forms follow the SMILES beside them. *: point of attachment. Cbz = O=C(OCc1ccccc1)*; CH2F = FC*

How the values were obtained:
[1] = test system: STING pathway in BMDCs co-cultured with PBM cells; assay: Co-culture of BMDCs with olaparib-treated PBM tumor cells; format: cell-based, mouse
Protocol: (§1) Blood was obtained by retro-orbital sampling at intermediate time points or experimental end points. Blood cells and plasma/sera were separated by centrifugation at 1,500×g for 5 min. at 4° C. Plasmaisera were sent out to Eve Technologies for cytokine array analysis (Chemokine Array 31-Plex and Mouse Procarta IFN 2-plex Featured Assay). Plasma/sera were applied to ELISA according to manufacturer's instructions. For in vitro experiments, cell culture supernatants were obtained by centrifugation at 1,500×g for 5 min. at 4° C. to remove all debris and cells, and were then subjected to ELISA analysis. IFN-β was detected using the LEGEND MAX™ Mouse IFN-β ELISA Kit (BioLegend).
Bone marrow cells were isolated from FVB/NJ mice and cultured in RPMI-1640 containing 10% FBS and 20 ng/ml GM-CSF. BMDCs (bone marrow derived dendritic cells) were harvested for in vitro co-culture assay on day 7 to day 10. About 3×10^5 PBM or PPM tumor cells were cultured in a 6-well plate for 24 hr. and then treated with DMSO or olaparib. After 24 hr incubation with DMSO, olaparib, or olaparib in combination with other drugs (cell cycle inhibitor or apoptosis inhibitor), drugs were removed and tumor cells were washed twice with PBS. BMDCs were added and co-cultured with PBM or PPM cells at a ratio of 1:1 in 1.5 ml culture media in the presence of GM-CSF (20 ng/ml) and lipofectamine (2 μl) for 24 hr. Co-cultured cells were harvested for flow cytometry analysis and floating cells (percentage of BMDCs is about 90%), or RNA analysis. Cell culture supernatants were collected for detection of IFN-β with the ELISA kit. BMDCs generated from C57BL/6J mice were applied for the coculture of BMDCs with ID8 tumor cells. Human dendritic cells purchased from Lonza were used for the coculture of human DCs with DMSO or olaparib-treated human ovarian cancer cells ([…] and UWB1.289+BRCA1).
(§2) About 50 to 100 mg of tumor samples were homogenized in 1 ml of TRIzol™ Reagent supplied with 200 μl of stainless steel beads and 0.2 ml of chloroform was added to the samples. Samples were vortexed vigorously for 15 seconds and then incubated at room temperature for 2 to 3 minutes. After centrifugation at 12,000×g for 15 minutes at 4° C., upper aqueous phase of the samples was carefully removed to a new tube and the total RNA was purified using an RNeasy® Mini Kit (Qiagen) according to manufactory's instruction. For the in vitro cultured cell samples, total RNA was isolated using an RNeasy® Mini Kit. The qPCR was performed on an Applied Biosystems 7300 machine after the total RNA was reverse transcribed to cDNA using the SuperScript® III First-Strand Synthesis System (Invitrogen). Primers used for qPCR were as follows: […]

STING signaling in BMDCs = assay: BMDCs stimulated with STING agonist DMXAA; format: cell-based, mouse
Protocol: as §1, §2

[2] = test system: STING pathway in BMDCs co-cultured with ID8 cells; assay: Co-culture of BMDCs with drug-treated WT or Brca1-null ID8 cells; format: cell-based, mouse; settings: co-cultured with both Brca1-deficient and Brca1 proficient ID8 cells
Protocol: Brca-1 deficient ID8 cells were generated using a CRISPR double nickase plasmid. ID8 cells cultured in a 6-well plate were transfected with 2 μg/well of BRCA1 double nickase plasmid (sc419362-NIC, Santa Cruz Biotechnology) or control double nickase plasmid (SC-437281, Santa Cruz Biotechnology) using lipofectamine 3000 (Invitrogen). 48 hrs post-transfection, cells were passaged onto a 10 cm plate. After 24 h, puromycin (3 μg/mL) was added to the culture for selection. Puromycin resistant cells were selected and expanded. Due to a lack of a reliable mouse BRCA1 antibody for Western blot, cells were analyzed by DNA sequencing to confirm the disruption of functional Brca1 allele. To generate ID8 tumors, cultured ID8 cells were harvested and resuspended in serum free DMEM. Cells were then mixed with Matrigel (Corning). A total volume of 0.1 ml containing 5×10^6 ID8 cells and 40% Matrigel were injected subcutaneously into the flank of C57BL/6J mice.
Bone marrow cells were isolated from FVB/NJ mice and cultured in RPMI-1640 containing 10% FBS and 20 ng/ml GM-CSF. BMDCs (bone marrow derived dendritic cells) were harvested for in vitro co-culture assay on day 7 to day 10. About 3×10^5 PBM or PPM tumor cells were cultured in a 6-well plate for 24 hr. and then treated with DMSO or olaparib. […]

[3] = test system: Brca1-proficient and Brca1-deficient tumor cells; assay: Measurement of IC50 value in tumor cells (MTS, 72 h); format: cell-based; settings: three pairs of models; for gemcitabine except PPM and PBM cells
Protocol: Tumor cells were seeded in 96-well plates at a density of 1000-3000/well and allowed to adhere overnight. Cells were then exposed to appropriate concentrations of therapeutic agents (or vehicle control) with continuous exposure for 72 h. Growth inhibition was measured by CellTiter Aqueous MTS reagent from Promega by comparing the absorbance at 490 nm of drug-treated cells to that of untreated controls set at 100%. 1C50 values were calculated using non-linear regression model (logarithmic inhibitor vs. normalized response-variable slope) in Graphpad Prism 7.

[4] = test system: PBM tumors (Trp53−/−; Brca1−/−; c-Myc); assay: Orthotopic PBM tumor allograft growth and survival (bioluminescence); format: in vivo, mouse; settings: PBM tumors; agent given together with olaparib
Protocol: All animal experiments described in this study were performed according to the animal protocols approved by the DFCI Institutional Animal Care and Use Committee. Brca1^loxP/loxP [FVB/N] mice, bearing loxP sites in introns 4 and 13 of the Brca1 gene, and Trp53^loxP/loxP[FVB/N] mice bearing loxP in introns 2 and 10 of the p53 gene, were obtained from Dr. Jos Jonkers's laboratory (Netherlands Cancer Institute, Amsterdam, The Netherlands). These mice were intercrossed through multiple generations to create a colony of homozygous Trp53^loxP/loxP/Brca1^loxP/loxP double conditional knockout mice. Ovaries were harvested from 8-week-old female Trp53^loxP/loxP/Brca1^loxP/loxP mice. The ovaries were washed twice with phosphate-buffered and incubated in DMEM/F12 (Ham's) medium containing collagenase and dispase (stem cell technologies) for 40 min at 37° C. The epithelial cells were pelleted by centrifugation at 800×g and cultured in DMEM/F12 (Life Technologies) supplemented with 4% (vol/vol) FBS, 1% penicillin/streptomycin, 10 ng/mL EGF, 5 μg/mL insulin, 5 Cpg/mL transferrin, and 5 ng/mL sodium selenite. Ovarian surface epithelial (OSE) cells were cultured for 48 hr and then introduced with Adeno-Cre (University of Iowa) and lentiviruses expressing C-Myc gene (Addgene #36980) or control GFP. After two days of infection in vitro, OSE cells are aggregated and implanted into recipient mice. About 5×10^5 OSE cells (Trp53^−/−; Brca1^−/−; c-Myc) were injected into the right ovarian bursal cavities of 6- to 7-week-old female nude mice. In each mouse, the left ovarian bursa was injected with GFP-expressing OSE cells (Trp53^−/−; Brca1^−/−; GFP). PBM (Trp53^−/−; Brca1^−/−; c-Myc) ovarian tumors developed within three to six months after implantation of the genetically engineered OSE cells. The primary ovarian tumors were digested and orthotopically transplanted to FVB/NJ mice. The PPM GEM model (Trp53^−/−; Pten^−/−; c-Myc) was developed with OSE cells isolated from homozygous Trp53^loxP/loxP/Pten^loxP/loxP(FVB/NJ) double conditional knockout mice using the same strategy for generation of the PBM GEM model described above. For histological analysis, tumor pieces were fixed in 10% Formalin overnight and transferred to 70% ethanol. Embedding, sectioning and H&E staining was performed by scientists at the Harvard rodent histopathology core facility. The histological characteristics of high grade ovarian tumor were confirmed by two independent pathologists at Harvard Medical School.
Single cells were obtained by digestion of primary ovarian tumors in collagenase buffer and then cultured in MOT media (DMEM/F12, 0.6% FBS, 10 ng/ml EGF, hydrocortisone 1 μg/ml, cholera toxin 1 ng/ml, 100 μg/ml penicillin-streptomycin, 5 μM Y27632). […] The endpoints were determined by tumor burden and ascites. […]

Structure (SMILES): CC(NC(=O)C(NC(=O)OCc1ccccc1)C(C)C)C(=O)NC(CC(=O)O)C(=O)CF (stereo not drawn) [zVAD] (Cbz-Val-Ala-Asp-CH2F; configuration not given here)
- effect of apoptosis inhibitor on activation of DCs co-cultured with olaparib-treated PBM cells ([1]; zVAD 10 μM with olaparib 2.5 μM, 24 h pre-treatment): little effect

Structure (SMILES): Cc1ccc2c(=O)c3cccc(CC(=O)O)c3oc2c1C [DMXAA, 5,6-dimethylxanthenone-4-acetic acid]
- IFN-β production from BMDCs in culture (STING signaling in BMDCs; DMXAA 5 μg/ml, 2 h): strong IFN-β production
- STING signaling in BMDCs (STING signaling in BMDCs; Western blot): activation of the STING signaling

Structure (SMILES): CC(=O)O[C@H]1C(=O)[C@@]2(C)[C@H]([C@H](OC(=O)c3ccccc3)[C@]3(O)C[C@H](OC(=O)[C@H](O)[C@@H](NC(=O)c4ccccc4)c4ccccc4)C(C)=C1C3(C)C)[C@]1(OC(C)=O)CO[C@@H]1C[C@@H]2O [paclitaxel]
- phosphorylation of TBK1 and IRF3 in BMDCs [2]: increased
- IC50 values, Brca1-deficient lines in comparison to Brca1-proficient counterparts [3]: no substantial differences

Structure (SMILES): Nc1ccn([C@@H]2O[C@H](CO)[C@@H](O)C2(F)F)c(=O)n1 [gemcitabine]
- IC50 values, Brca1-deficient lines in comparison to Brca1-proficient counterparts [3]: no substantial differences

Structure (SMILES): Cn1ncnc1[C@H]1c2n[nH]c(=O)c3cc(F)cc(c23)N[C@@H]1c1ccc(F)cc1 [talazoparib]
- IC50 values, Brca1-deficient lines in comparison to Brca1-proficient counterparts [3]: much more sensitive

Structure (SMILES): O=C(NCCCNc1nc(Nc2cccc(NC(=O)N3CCCC3)c2)ncc1I)c1cccs1 [BX795]
- effect of added agent on olaparib-induced tumor inhibition / antitumor activity of olaparib [4]: blocked the anti-tumor activity of olaparib; also recorded: attenuated
- effect on DMXAA-induced IFN-β production from BMDCs (STING signaling in BMDCs; BX795 2 μM, 2 h): abolished
- effect on olaparib-induced IFNβ/CXCL10 expression and STING activation in co-cultured DCs ([1]; agent added to the co-culture): abrogated
- effect on olaparib-induced phosphorylation of TBK1 in CD11c dendritic cells ([1]; agent added to the co-culture): reduced
